Inconclusive results and toxic doses are left out. Cut-off read from the data, not from the text of the source: active = T/C of 150% or more; inactive = T/C below 125%.
System: L1210 leukemia ip in BDF1 mice, survival T/C
Experiment: NCI In Vivo Anticancer Drug Screen. Data for tumor model L1210 Leukemia (intraperitoneal) in B6D2F1 (BDF1) mice
Details: endpoint: mean survival time, higher = longer survival
In short: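 Tumor was transplanted into mice, which were then dosed with test compound or vehicle alone. Survival was recorded for each group, and the treated figure was expressed relative to the control figure.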

[1] = dose: 100.0 mg/kg/injection, schedule: Q01DX009 (ip), vehicle: saline
[2] = dose: 100.0 mg/kg/injection, schedule: Q04DX003 (ip), vehicle: saline
[3] = dose: 100.0 mg/kg/injection, schedule: Q01DX009 (ip), vehicle: saline with Tween-80
[4] = dose: 200.0 mg/kg/injection, schedule: Q01DX009 (ip), vehicle: saline with Tween-80
[5] = dose: 400.0 mg/kg/injection, schedule: Q01DX009 (ip), vehicle: saline with Tween-80
[6] = dose: 100.0 mg/kg/injection, schedule: Q01DX001 (ip), vehicle: carboxymethylcellulose (CMC)
[7] = dose: 200.0 mg/kg/injection, schedule: Q01DX001 (ip), vehicle: carboxymethylcellulose (CMC)
[8] = dose: 400.0 mg/kg/injection, schedule: Q01DX001 (ip), vehicle: carboxymethylcellulose (CMC)
[9] = dose: 100.0 mg/kg/injection, schedule: Q04DX003 (ip), vehicle: Klucel (hydroxypropylcellulose) (HPC)
[10] = dose: 200.0 mg/kg/injection, schedule: Q04DX003 (ip), vehicle: Klucel (hydroxypropylcellulose) (HPC)
[11] = dose: 400.0 mg/kg/injection, schedule: Q04DX003 (ip), vehicle: Klucel (hydroxypropylcellulose) (HPC)
[12] = dose: 100.0 mg/kg/injection, schedule: Q01DX001 (ip), vehicle: saline
[13] = dose: 200.0 mg/kg/injection, schedule: Q01DX001 (ip), vehicle: saline
[14] = dose: 25.0 mg/kg/injection, schedule: Q01DX009 (ip), vehicle: saline with Tween-80
[15] = dose: 50.0 mg/kg/injection, schedule: Q01DX001 (ip), vehicle: carboxymethylcellulose (CMC)
[16] = dose: 100.0 mg/kg/injection, schedule: Q01DX009 (ip), vehicle: Klucel (hydroxypropylcellulose) (HPC)
[17] = dose: 200.0 mg/kg/injection, schedule: Q01DX009 (ip), vehicle: Klucel (hydroxypropylcellulose) (HPC)
[18] = dose: 400.0 mg/kg/injection, schedule: Q01DX009 (ip), vehicle: Klucel (hydroxypropylcellulose) (HPC)
[19] = dose: 100.0 mg/kg/injection, schedule: Q04DX002 (ip), vehicle: Klucel (hydroxypropylcellulose) (HPC)
[20] = dose: 200.0 mg/kg/injection, schedule: Q04DX003 (ip), vehicle: saline
[21] = dose: 400.0 mg/kg/injection, schedule: Q04DX003 (ip), vehicle: saline

Measured: T/C

NC1CC[N-]CC1.NC1CC[N-]CC1.[Cl][Pt+2]([Cl])([Cl])[Cl]
inactive: dose: 12.5 mg/kg/injection, schedule: Q01DX009 (ip), vehicle: saline 101 % of control | dose: 25.0 mg/kg/injection, schedule: Q01DX009 (ip), vehicle: saline 101 % of control | dose: 50.0 mg/kg/injection, schedule: Q01DX009 (ip), vehicle: saline 95 % of control | dose: 50.0 mg/kg/injection, schedule: Q04DX003 (ip), vehicle: saline 106 % of control | [1] 101 % of control | [2] 104 % of control

O=c1oc2ccccc2c2c1C(c1ccc3c(c1)OCO3)C=C(c1ccc3c(c1)OCO3)O2 (stereo not drawn)
inactive: dose: 25.0 mg/kg/injection, schedule: Q01DX009 (ip), vehicle: water 101 % of control | dose: 50.0 mg/kg/injection, schedule: Q01DX009 (ip), vehicle: water 100 % of control | dose: 100.0 mg/kg/injection, schedule: Q01DX009 (ip), vehicle: water 97 % of control | dose: 200.0 mg/kg/injection, schedule: Q01DX009 (ip), vehicle: water 95 % of control | dose: 400.0 mg/kg/injection, schedule: Q01DX009 (ip), vehicle: water 102 % of control

COc1ccc(/C=C/C(=O)c2ccc3c(c2)OCO3)cc1OC
inactive: [3] 101 % of control | [4] 94 % of control | [5] 95 % of control

COc1ccc(NC(=O)C(Cl)Cl)cc1NC(C)=O
inactive: [6] 96 % of control | [7] 108 % of control | [8] 91 % of control

CC12CCC(C)(O1)C1C(=O)OC(=O)C12 (stereo not drawn)
inactive: [9] 96 % of control | [10] 98 % of control | [11] 98 % of control

OCCNc1ccccc1
inactive: [12] 93 % of control | [13] 101 % of control

CCCC[P+](CCCC)(CCCC)C(C)C
inactive: dose: 12.0 mg/kg/injection, schedule: Q01DX009 (ip), vehicle: saline with Tween-80 97 % of control | [14] 97 % of control | dose: 25.0 mg/kg/injection, schedule: Q04DX003 (ip), vehicle: saline with Tween-80 101 % of control | dose: 50.0 mg/kg/injection, schedule: Q04DX003 (ip), vehicle: saline with Tween-80 99 % of control

Br/C=C/c1ccccc1
inactive: dose: 100.0 mg/kg/injection, schedule: Q04DX002 (ip), vehicle: saline with Tween-80 94 % of control | dose: 200.0 mg/kg/injection, schedule: Q04DX002 (ip), vehicle: saline with Tween-80 97 % of control | dose: 400.0 mg/kg/injection, schedule: Q04DX002 (ip), vehicle: saline with Tween-80 100 % of control

COc1ccc(/C=C/C(=O)c2cc(C(=O)O)c(OC)cc2OC)cc1OC
inactive: dose: 12.5 mg/kg/injection, schedule: Q01DX009 (ip), vehicle: saline with Tween-80 111 % of control | [14] 93 % of control | dose: 50.0 mg/kg/injection, schedule: Q01DX009 (ip), vehicle: saline with Tween-80 98 % of control | [3] 98 % of control | [4] 95 % of control

COC(=O)CCCc1ccc(N(CCO)CCF)cc1
inactive: dose: 25.0 mg/kg/injection, schedule: Q01DX001 (ip), vehicle: carboxymethylcellulose (CMC) 103 % of control | [15] 114 % of control | [6] 101 % of control | [7] 106 % of control

CCOC(=O)C1=C(O)c2ccccc2C1c1ccccc1 (stereo not drawn)
inactive: [16] 93 % of control | [17] 91 % of control | [18] 93 % of control

NNC(=O)c1ccc(-c2ccc[nH]2)[nH]1
inactive: dose: 75.0 mg/kg/injection, schedule: Q01DX001 (ip), vehicle: saline 108 % of control | dose: 150.0 mg/kg/injection, schedule: Q01DX001 (ip), vehicle: saline 92 % of control

CN1COc2c(nc(-c3ccccc3)[nH]c2=O)C1
inactive: [15] 101 % of control | [6] 98 % of control | [7] 98 % of control | [8] 95 % of control

CCCCNC(C)(C)C(SS)c1ccc(Cl)cc1 (stereo not drawn)
inactive: dose: 50.0 mg/kg/injection, schedule: Q01DX009 (ip), vehicle: other 94 % of control | dose: 100.0 mg/kg/injection, schedule: Q01DX009 (ip), vehicle: other 92 % of control

C/C(CC(C)C)=N/O
inactive: [12] 95 % of control | [13] 97 % of control | dose: 400.0 mg/kg/injection, schedule: Q01DX001 (ip), vehicle: saline 92 % of control

O=C(/C=C\c1ccccc1)OCc1ccccc1CN1C=CCC1
inactive: [19] 86 % of control | dose: 200.0 mg/kg/injection, schedule: Q04DX002 (ip), vehicle: Klucel (hydroxypropylcellulose) (HPC) 104 % of control | dose: 400.0 mg/kg/injection, schedule: Q04DX002 (ip), vehicle: Klucel (hydroxypropylcellulose) (HPC) 86 % of control

Nc1cc(F)c2c(c1)C(=O)c1cc(F)ccc1-2
inactive: [15] 93 % of control | dose: 50.0 mg/kg/injection, schedule: Q04DX003 (ip), vehicle: Klucel (hydroxypropylcellulose) (HPC) 96 % of control | [6] 95 % of control | [9] 96 % of control | [7] 95 % of control | [10] 98 % of control | [8] 95 % of control

CCOC(=O)CCN(CC(C)C)C(=S)Nc1ccccc1
inactive: dose: 100.0 mg/kg/injection, schedule: Q01DX Z (ip), vehicle: methylcellulose (MC) 93 % of control

c1cncc(C2OCCO2)c1
inactive: [2] 98 % of control | [20] 92 % of control | [21] 105 % of control

Cc1cc(N(CCCOS(C)(=O)=O)CCCOS(C)(=O)=O)ccc1C=Nc1ccc(-c2csc(COc3ccc(Cl)cc3Cl)n2)cc1
inactive: [3] 91 % of control | [4] 96 % of control | [5] 94 % of control

O=S(=O)(O)c1ccc(N=Nc2c(O)cc(O)cc2O)cc1
inactive: [2] 94 % of control | [20] 97 % of control | [21] 93 % of control

CC(C)c1ccccc1OS(=O)(=O)c1ccc([N+](=O)[O-])cc1
inactive: [3] 103 % of control | [9] 103 % of control | [4] 92 % of control | [10] 105 % of control | [5] 90 % of control | [11] 92 % of control

CCCCCCCCCCCCCCCCOc1ccccn1
inactive: [16] 96 % of control | [9] 92 % of control | [17] 96 % of control | [10] 95 % of control | [18] 98 % of control | [11] 90 % of control

CN=C(N)c1ccc(N=C(N)c2ccc(N=C(N)c3ccc(NC(=O)c4ccc(C(=O)Nc5ccc(C(N)=Nc6ccc(C(N)=Nc7ccc(C(N)=NC)cc7)cc6)cc5)cc4)cc3)cc2)cc1
inactive: dose: 6.25 mg/kg/injection, schedule: Q01DX Z (ip), vehicle: water 110 % of control | dose: 12.5 mg/kg/injection, schedule: Q01DX Z (ip), vehicle: water 120 % of control | dose: 50.0 mg/kg/injection, schedule: Q01DX Z (ip), vehicle: water 121 % of control

O=S1(=O)OCc2ccccc21
inactive: dose: 50.0 mg/kg/injection, schedule: Q01DX009 (ip), vehicle: acetone 106 % of control | [6] 100 % of control | dose: 100.0 mg/kg/injection, schedule: Q01DX009 (ip), vehicle: acetone 97 % of control | [2] 100 % of control | [7] 100 % of control | [20] 94 % of control

CC(=O)OCC1OC(Sc2ncc3cnccn23)C(OC(C)=O)C(OC(C)=O)C1OC(C)=O (stereo not drawn)
inactive: dose: 100.0 mg/kg/injection, schedule: Q01DX005 (ip), vehicle: saline 88 % of control | dose: 200.0 mg/kg/injection, schedule: Q01DX005 (ip), vehicle: saline 93 % of control

CCCCOC(=O)Oc1ccc(C(=O)Oc2ccc(OCC)cc2)cc1
inactive: [16] 111 % of control | [9] 104 % of control | [17] 106 % of control | [10] 109 % of control | [11] 98 % of control

CC(C)=C1C2C=CC1C(C(=O)N(C)C)C2C(=O)N(C)C (stereo not drawn)
inactive: [1] 96 % of control | [2] 113 % of control | dose: 200.0 mg/kg/injection, schedule: Q01DX009 (ip), vehicle: saline 98 % of control | [20] 108 % of control | dose: 400.0 mg/kg/injection, schedule: Q01DX009 (ip), vehicle: saline 104 % of control | [21] 100 % of control

CC(=O)NC1C(NC(=O)C(CC(=O)O)NC(=O)OCc2ccccc2)OC(COC(C)=O)C(OC(C)=O)C1OC(C)=O (stereo not drawn)
inactive: dose: 50.0 mg/kg/injection, schedule: Q04DX002 (ip), vehicle: Klucel (hydroxypropylcellulose) (HPC) 94 % of control | [19] 91 % of control

From PubChem BioAssay AID248 (DTP/NCI, 2004)
